Experimental data published in ChEMBL document CHEMBL6087417, “The synthesis and antileukemic activity of 5-substituted thiazolyl urea derivatives” (Bioorg Med Chem Lett, 2025).

How the values were obtained:
THP-1 = test: Antileukemic activity against human THP-1 cells assessed as inhibition of cell proliferation by MTS assay; assay type: functional, cell-based
MV4-11 = test: Antileukemic activity against human MV4-11 cells assessed as inhibition of cell proliferation by MTS assay; assay type: functional, cell-based
[1] = Cytotoxicity against PBMC (unknown origin) assessed as cell survival at 20 uM relative to control; assay type: toxicity, cell-based; conditions: read-out: Survival

Compound | IC50 (THP-1) [µM] | IC50 (MV4-11) [µM] | viability at 20 µM [1] [%]
Nc1ccn([C@@H]2O[C@H](CO)[C@@H](O)[C@@H]2O)c(=O)n1 [CYTARABINE] | 0.46 |  | 
O=C(Nc1ncc(Cc2cccc(C(F)(F)F)c2)s1)N1CCN(c2ccc(Cl)cc2)CC1 | 0.37 | 0.3 | 
CCOc1cccc(Cc2cnc(NC(=O)N3CCN(c4ccc(Cl)cc4)CC3)s2)c1 | > 20 | > 20 | 
O=C(Nc1ncc(Cc2cccc(Br)c2)s1)N1CCN(c2cccc(Cl)n2)CC1 | > 20 | 16.8 | 
Cc1cccc(N2CCN(C(=O)Nc3ncc(Cc4cccc(Br)c4)s3)CC2)n1 | > 20 | > 20 | 
O=C(Nc1ncc(Cc2cccc(Br)c2)s1)N1CCN(C(=O)c2ccc(Cl)cc2)CC1 | > 20 | > 20 | 
O=C(Nc1ncc(Cc2ccccc2Br)s1)N1CCN(c2ccccc2)CC1 | 2.41 | 1.46 | 
Cc1ccnc(N2CCN(C(=O)Nc3ncc(Cc4cccc(Br)c4)s3)CC2)c1 | > 20 | 5.31 | 
O=C(Nc1ncc(Cc2cccc(Br)c2)s1)N1CCN(c2cccc(Br)n2)CC1 | > 20 | > 20 | 
O=C(Nc1ncc(Cc2cccc(Br)c2)s1)N1CCN(c2ccc([N+](=O)[O-])cc2)CC1 | > 20 | 2.05 | 
O=C(Nc1ncc(Cc2cccc(Br)c2)s1)N1CCCN(c2ccc(Cl)cc2)CC1 | > 20 | > 20 | 
O=C(Nc1ncc(Cc2ccc(Br)cc2)s1)N1CCN(c2ccccc2)CC1 | 4.05 | 1.85 | 
O=C(Nc1ncc(Cc2ccc(Br)cc2)s1)N1CCN(c2ccc(Cl)cc2)CC1 | 0.37 | 0.55 | 
O=C(Nc1ncc(Cc2cccc(Br)c2)s1)N1CCN(c2cc(Cl)cc(Cl)c2)CC1 | > 20 | > 20 | 
CC(C)Oc1cccc(Cc2cnc(NC(=O)N3CCN(c4ccc(Cl)cc4)CC3)s2)c1 | > 20 | > 20 | 
O=C(Nc1ncc(Cc2ccc(Cl)cc2)s1)N1CCN(c2ccc(Cl)cc2)CC1 | 0.17 | 0.21 | 
COc1ccccc1Cc1cnc(NC(=O)N2CCN(c3ccc(Cl)cc3)CC2)s1 | 0.36 | 0.19 | 
CC1CN(C(=O)Nc2ncc(Cc3cccc(Br)c3)s2)CCN1c1ccc(Cl)cc1 (configuration not stated) | > 20 | 14.8 | 
O=C(Nc1ncc(Cc2ccccc2Cl)s1)N1CCN(c2ccc(Cl)cc2)CC1 | 1.11 | 0.16 | 
N#Cc1ccc(N2CCN(C(=O)Nc3ncc(Cc4cccc(Br)c4)s3)CC2)cc1 | 0.66 | 0.89 | 
Cc1cccc(Cc2cnc(NC(=O)N3CCN(c4ccc(Cl)cc4)CC3)s2)c1 | > 20 | 0.21 | 
O=C(Nc1ncc(Cc2cccc(Br)c2)s1)N1CCN(c2cccc(F)n2)CC1 | > 20 | > 20 | 
O=C(Nc1ncc(Cc2ccccc2C(F)(F)F)s1)N1CCN(c2ccc(Cl)cc2)CC1 | > 20 | 4.99 | 
CC1CCN(C(=O)Nc2ncc(Cc3ccccc3Br)s2)CC1 | 3.84 | 1.89 | 
O=C(Nc1ncc(Cc2ccccc2Br)s1)N1CCN(c2ccc(Cl)cc2)CC1 | 1.3 | 1.12 | 
Cc1ccc(N2CCN(C(=O)Nc3ncc(Cc4ccc(Br)cc4)s3)CC2)cc1 | 1.78 | 1.11 | 
COc1ccc(Cc2cnc(NC(=O)N3CCCN(c4ccc(Cl)cc4)CC3)s2)cc1 | 0.27 | 0.31 | 

Compound | IC50 (THP-1) [µM] | IC50 (MV4-11) [µM] | viability at 20 µM [1] [%]
O=C(Nc1ncc(Cc2cccc(Br)c2)s1)N1CCN(S(=O)(=O)c2ccc(Cl)cc2)CC1 | > 20 | > 20 | 
O=C(Nc1ncc(Cc2ccc(Br)cc2)s1)N1CCN(c2ccc(O)cc2)CC1 | > 20 | > 20 | 
O=C(Nc1ncc(Cc2cccc(Br)c2)s1)N1CCN(c2ccc(C(F)(F)F)cc2)CC1 | > 20 | 4.5 | 
O=C(Nc1ncc(Cc2cccc(Br)c2)s1)N1CCN(c2ccc(F)cc2)CC1 | 0.19 | 0.17 | 
Cc1ccc(N2CCN(C(=O)Nc3ncc(Cc4ccccc4Br)s3)CC2)cc1 | 9.58 | 2.8 | 
O=C(Nc1ncc(Cc2cccc(Br)c2)s1)N1CCN(c2cc(C(F)(F)F)cc(C(F)(F)F)c2)CC1 | > 20 | > 20 | 
CC1CCN(C(=O)Nc2ncc(Cc3cccc(Br)c3)s2)CC1 | 3.24 | 2.41 | 
O=C(Nc1ncc(Cc2cccc(Br)c2)s1)N1CCN(c2cccc(C(F)(F)F)n2)CC1 | > 20 | > 20 | 
O=C(Nc1ncc(Cc2cccc(Br)c2)s1)N1CC2CC1CN2c1ccc(Cl)cc1 (configuration not stated) | > 20 | 11.1 | 
O=C(Nc1ncc(Cc2cccc(Br)c2)s1)N1CCN(c2ccc(Cl)cn2)CC1 | 0.68 | 0.62 | 
COc1cccc(Cc2cnc(NC(=O)N3CCN(c4ccc(Cl)cc4)CC3)s2)c1 | 0.21 | 0.13 | 
Cc1ccc(N2CCN(C(=O)Nc3ncc(Cc4cccc(Br)c4)s3)CC2)cc1 | 3.48 | 2.88 | 
O=C(Nc1ncc(Cc2cccc(Br)c2)s1)N1CCN(Cc2ccc(Cl)cc2)CC1 | > 20 | > 20 | 
O=C(Nc1ncc(Cc2cccc(O)c2)s1)N1CCN(c2ccc(Cl)cc2)CC1 | 0.11 | 0.14 | 
COc1ccc(Cc2cnc(NC(=O)N3CCN(c4ccc(Cl)cc4)CC3)s2)cc1 | 0.029 | 0.098 | 91.7
O=C(Nc1ncc(Cc2cccc(Cl)c2)s1)N1CCN(c2ccc(Cl)cc2)CC1 | 0.2 | 0.39 | 
O=C(Nc1ncc(Cc2cccc(Br)c2)s1)N1CCN(c2ccccc2Cl)CC1 | 1.61 | 1.32 | 
O=C(Nc1ncc(Cc2cccc(Br)c2)s1)N1CCN(c2ccc(Cl)cc2)CC1 | 0.33 | 0.26 | 
CC1CCN(C(=O)Nc2ncc(Cc3ccc(Br)cc3)s2)CC1 | 1.39 | 1.49 | 
O=C(Nc1ncc(Cc2cccc(OCCCN3CCOCC3)c2)s1)N1CCN(c2ccc(Cl)cc2)CC1 | > 20 | > 20 | 
O=C(Nc1ncc(Cc2cccc(Br)c2)s1)N1CCN(c2cccc(Cl)c2)CC1 | > 20 | 9.98 | 
COc1ccc(Cc2cnc(NC(=O)N3C4CC[C@@H]3CN(c3ccc(Cl)cc3)C4)s2)cc1 | 0.29 | 0.31 | 
O=C(Nc1ncc(Cc2cccc(Br)c2)s1)N1C2CC[C@@H]1CN(c1ccc(Cl)cc1)C2 | > 20 | 9.73 | 
O=C(Nc1ncc(Cc2ccc(C(F)(F)F)cc2)s1)N1CCN(c2ccc(Cl)cc2)CC1 | 0.18 | 0.23 | 
CCc1nc(C(N)=O)c(Nc2ccc(N3CCC(N4CCN(C)CC4)CC3)c(OC)c2)nc1NC1CCOCC1 [GILTERITINIB] |  | 0.024 | 
COCc1cccc(Cc2cnc(NC(=O)N3CCN(c4ccc(Cl)cc4)CC3)s2)c1 | 0.13 | 0.13 | 
O=C(Nc1ncc(Cc2cccc(Br)c2)s1)N1CCN(c2ccccc2)CC1 | 4.08 | 1.31 | 
